Columns and labels:
[1] = tested on: renal cancer cells (surgical specimen); assay: Proliferation of cells from a surgical renal cancer specimen; assay type: cell-based; conditions: about 24-30 hrs; chemotherapies at high concentrations of approximately 10-100 fold
Experimental: Cells were incubated with purified developmental peptides for approximately 24-30 hrs. While developmental peptides were effective in inhibiting proliferation of the renal cancer cells, two standardly used chemotherapies (a 5-FU regimen and a vinblastine regimen) remained ineffective, even at a high concentrations of approximately 10-100 fold.

[2] = tested on: renal carcinoma cells (RCC); assay: Viability of short-term cultured renal carcinoma cells (P1 and JC-1 staining); assay type: cell-based
Experimental: Mitochondrial membrane potential. A stock solution of JC-1 dye (100 μg/ml in DMSO) is prepared. Cells are preincubated with the peptide of SEQ ID NO: 2 for up to 24 hours. JC-1 reagent is diluted just prior to use. For each assay, 100 μl of stock solution is diluted to 1 ml using pre-warmed cell culture medium and the solution is vortexed. 40 μl of diluted JC-1 is added to each well and incubated at 37° C. in 5% CO2 incubator for 25-30 min. Medium is replaced with pre-warmed PBS. Samples are detected by fluorescent signals by using flow cytometry results compared to buffer only treated controls. JC-1 reagent accumulates in the intact mitochondria, giving off a bright red fluorescence. In apoptotic cells, JC-1 reagent cannot accumulate in the mitochondria due to the altered mitochondrial membrane potential.
FIG. 2 further confirms developmental peptides effectiveness as compared to chemotherapy. Short-term cultured renal carcinoma cells (RCC) were incubated with developmental peptides. […] While not wishing to be bound to theory, the anti-proliferative effect of developmental peptides is thought to be due to the developmental peptides induction of mitochondrial alterations in the malignant cells, as analyzed using JC-1 staining, a process which invariably leads to cell death. […] Thus, low concentrations of developmental peptides may enhance the efficacy of a chemotherapy regimen.

[3] = tested on: human mammary epithelial cells (HMEC); assay: 3H thymidine labeling of DNA in normal HMEC cells; assay type: cell-based; conditions: about 1.5-12 mg/ml, low concentrations
Experimental: 3H Thymidine assay. In particular the tritiated thymidine assays were performed as follows. 10,000 cells were plated in 1 ml of RPMI 1640 medium containing 10% fetal bovine serum in 24-well plates. The cultures were incubated for 24 hours at 37 C, 5% carbon dioxide. The peptide was added to each corresponding well at different doses and allowed to incubate for 72 hours. The cells were then exposed to tritiated thymidine at a concentration of 1 uCi/ml (ICN, cat #2403905) and incubated at 37 C for 4 hours. The cells were washed twice with cold PBS to remove non-incorporated thymidine. The cells were treated twice with 10% trichloracetic acid (Fisher, lot #94276913), 1 ml per well. The cells were then disrupted by treatment with 10% sodium lauryl sulfate (Sigma, Cat#L-3771) at 500 ul/well. Cell from each well were transferred to a scintillation vial and counted in a Beckman Counter Model LS-133 scintillation counter.
A breast cancer cell line (MCF-7) and human mammary epithelial cells (HMEC) were incubated with the 9 AA developmental peptides of SEQ ID NO: 2. 3H thymidine labeling of DNA was used to analyze the anti-proliferative effect of developmental peptides using concentrations in the range of about 1.5-12 mg/ml developmental peptides. […] The antiproliferative response was repeated and analyzed using the XTT method. […]

MCF-7 cells = assay: XTT method on MCF-7 cells; assay type: cell-based; conditions: about 1.5 mg/ml
Experimental: (§1) XTT method. A commercial (Roche, N.J.) kit was used. At the end of the experiment the XTT labeling mixture was coupled to the electron reagent coupling and was added to the cultured cells in microplate for 4 hours. The microplate was placed in an ELISA microplate reader (Molecular devices, Menlo Park, Calif.).
(§2) A breast cancer cell line (MCF-7) and human mammary epithelial cells (HMEC) were incubated with the 9 AA developmental peptides of SEQ ID NO: 2. 3H thymidine labeling of DNA was used to analyze the anti-proliferative effect of developmental peptides using concentrations in the range of about 1.5-12 mg/ml developmental peptides. […] The antiproliferative response was repeated and analyzed using the XTT method. […] Finally, this same analysis was repeated using resistant prostate cancer cells, the PC3 cell line, which are androgen receptor negative cells. Developmental peptides was added to the cells using concentrations of about 6-25 mg/ml for 24 hours in the presence of 3H thymidine to measure the effect of developmental peptides on cell proliferation.

HMEC cells = assay: XTT method on HMEC cells; assay type: cell-based, human; conditions: about 1.5 mg/ml
Experimental: as §1, §2

rat embryo cultures = assay: Rat embryo culture teratogenicity (roller bottle system); conditions: 48 hours, about 500 μg/ml
Experimental: Rat embryo cultures were exposed to synthetic developmental peptides of about 9 AA (about 500 μg/ml) for 48 hours (FIG. 6).

[4] = tested on: PC3 cell line (androgen receptor negative prostate cancer cells); assay type: cell-based; conditions: about 12-25 mg/ml, 24 hours
[5] = tested on: MCF-7 breast cancer cells; assay: 3H thymidine incorporation assay on MCF-7 cells; assay type: cell-based; conditions: about 1.5-12 mg/ml, low concentrations
Experimental: Isolation of the 9AA peptide from the adult mammalian liver. Fresh adult rabbit liver tissues were collected and homogenized on ice with H20. The samples were centrifuged at 15,000 g and the sample was filtered using Amicon filters 3000-10000 Da, <3000-500, and <500. Fractions collected were tested for activity using the MCF-7 cells. […] Separation by reverse phase HPLC yielded a 90% inhibition of cancer cells.
In a similar manner adult frozen porcine liver was collected and homogenized with H2O at 4° C. The suspension was centrifuged at 15,000 g and the pellet discarded. The suspension was filtered and the fraction <3000 Da was collected and run using reversed phase HPLC C18 column with a 0-95% acetonitrile gradient. […] Antiproliferative activity was tested by collecting the fractions, drying and suspending the sample in media and adding to MCF7 cells for 48 hours. Incorporation of 3H thymidine into cellular DNA of MCF-7 breast cancer cells was used to determine the anti-proliferative activity.
3H Thymidine assay. […] Cell from each well were transferred to a scintillation vial and counted in a Beckman Counter Model LS-133 scintillation counter.
A breast cancer cell line (MCF-7) and human mammary epithelial cells (HMEC) were incubated with the 9 AA developmental peptides of SEQ ID NO: 2. […] The antiproliferative response was repeated and analyzed using the XTT method. […]

`O=c1[nH]cc(F)c(=O)[nH]1` [5-FU] was tested, and the “inhibition of renal cancer cell proliferation” value [1] was “ineffective”.
In the case of `COc1cc([C@@H]2c3cc4c(cc3[C@@H](O[C@@H]3O[C@@H]5CO[C@@H](C)O[C@H]5[C@H](O)[C@H]3O)[C@H]3COC(=O)[C@H]23)OCO4)cc(OC)c1O` [etoposide], the “cell viability / cell death in RCC, P1 staining” value (“cell viability / cell death” for short) [2] is reported as “failed to induce cell death”.
`CN(Cc1cnc2nc(N)nc(N)c2n1)c1ccc(C(=O)N[C@@H](CCC(=O)O)C(=O)O)cc1` [methotrexate] was tested, and the “cell viability / cell death” value [2] was “failed to induce cell death”.
For `CC(=O)O[C@H]1C(=O)[C@@]2(C)[C@H]([C@H](OC(=O)c3ccccc3)[C@]3(O)C[C@H](OC(=O)[C@H](O)[C@@H](NC(=O)c4ccccc4)c4ccccc4)C(C)=C1C3(C)C)[C@]1(OC(C)=O)CO[C@@H]1C[C@@H]2O` [paclitaxel], the “cell viability / cell death” value [2] was “failed to induce cell death”.
In the case of `CC[C@]1(O)C[C@@H]2CN(CCc3c([nH]c4ccccc34)[C@@](C(=O)OC)(c3cc4c(cc3OC)N(C)[C@H]3[C@@](O)(C(=O)OC)[C@H](OC(C)=O)[C@]5(CC)C=CCN6CC[C@]43[C@@H]65)C2)C1` [vinblastine], the “inhibition of renal cancer cell proliferation” value [1] is reported as “ineffective”.
For “H-VLGKRIKGT-OH [9 AA developmental peptides, N-Val-Leu-Gly-Lys-Arg-Ile-Lys-Gly-Thr-OH]”, the “effect on normal HMEC cells, 3H thymidine” value [3] was “absence of any harmful or negative effect”, the “antiproliferative effect, XTT” value (MCF-7 cells) was “maintained the antiproliferative effect” and the “effect on HMEC cells, XTT” value (HMEC cells) was “minimal effect”. The “development of viscera yolk sac and embryo” value (rat embryo cultures) was “developed normally”, the teratogenicity (rat embryo cultures) was “not teratogenic” and the “inhibition of PC3 proliferation, 3H thymidine” value [4] was “approximately 98%”. The “antiproliferative response, 3H thymidine” value [5] was “antiproliferative response was maintained”.

Reference: patent US20090264371A1, “ANTIPROLIFERATIVE PEPTIDES AND ANTIBODIES FOR THEIR DETECTION” (BIOINCEPT LLC, priority 2004, published 2009)
